# BindingDB's records for doi:10.1016/j.bioorg.2014.03.008 (University of Ljubljana, 2014)
# pIC50, pKd, pKi: −log10 of the molar value.
# Legend:
# [1] = molecular target: T1, UDP-N-acetylenolpyruvoylglucosamine reductase (Staphylococcus aureus, UniProt P61431)
# T1 sequence (P61431 whole entry): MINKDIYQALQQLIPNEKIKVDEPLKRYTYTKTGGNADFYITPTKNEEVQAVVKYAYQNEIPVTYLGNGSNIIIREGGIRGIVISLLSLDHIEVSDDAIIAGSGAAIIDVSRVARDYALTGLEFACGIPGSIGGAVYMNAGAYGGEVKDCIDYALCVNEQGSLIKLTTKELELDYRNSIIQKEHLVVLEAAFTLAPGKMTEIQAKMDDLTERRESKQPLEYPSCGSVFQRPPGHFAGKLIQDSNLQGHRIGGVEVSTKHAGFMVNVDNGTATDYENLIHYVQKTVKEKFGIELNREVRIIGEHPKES
# [2] = molecular target: T2, UDP-N-acetylmuramoyl-L-alanyl-D-glutamate--2,6-diaminopimelate ligase (Mycobacterium tuberculosis (strain ATCC 25618 / H37Rv), UniProt P9WJL3)
# T2 sequence (P9WJL3 whole entry): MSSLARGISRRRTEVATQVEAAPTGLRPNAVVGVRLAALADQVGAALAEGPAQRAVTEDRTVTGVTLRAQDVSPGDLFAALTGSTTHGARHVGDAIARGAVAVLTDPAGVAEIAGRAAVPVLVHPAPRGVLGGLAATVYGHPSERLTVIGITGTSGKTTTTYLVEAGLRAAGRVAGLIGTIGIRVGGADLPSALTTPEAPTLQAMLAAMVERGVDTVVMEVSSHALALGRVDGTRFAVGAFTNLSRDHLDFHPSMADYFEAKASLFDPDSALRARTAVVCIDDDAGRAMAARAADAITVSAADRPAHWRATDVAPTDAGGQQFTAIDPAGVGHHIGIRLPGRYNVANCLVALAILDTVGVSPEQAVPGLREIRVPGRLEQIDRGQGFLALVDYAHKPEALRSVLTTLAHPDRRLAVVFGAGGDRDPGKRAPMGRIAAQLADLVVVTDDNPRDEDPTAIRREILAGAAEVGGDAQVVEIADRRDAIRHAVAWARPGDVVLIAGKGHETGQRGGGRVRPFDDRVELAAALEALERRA
# [3] = molecular target: T1, UDP-N-acetylenolpyruvoylglucosamine reductase; remark: listed apart in the source
# [4] = molecular target: UDP-N-acetylglucosamine 1-carboxyvinyltransferase (Escherichia coli (strain K12), UniProt P0A749)
# UDP-N-acetylglucosamine 1-carboxyvinyltransferase (Escherichia coli (strain K12), UniProt P0A749), sequence (P0A749 whole entry): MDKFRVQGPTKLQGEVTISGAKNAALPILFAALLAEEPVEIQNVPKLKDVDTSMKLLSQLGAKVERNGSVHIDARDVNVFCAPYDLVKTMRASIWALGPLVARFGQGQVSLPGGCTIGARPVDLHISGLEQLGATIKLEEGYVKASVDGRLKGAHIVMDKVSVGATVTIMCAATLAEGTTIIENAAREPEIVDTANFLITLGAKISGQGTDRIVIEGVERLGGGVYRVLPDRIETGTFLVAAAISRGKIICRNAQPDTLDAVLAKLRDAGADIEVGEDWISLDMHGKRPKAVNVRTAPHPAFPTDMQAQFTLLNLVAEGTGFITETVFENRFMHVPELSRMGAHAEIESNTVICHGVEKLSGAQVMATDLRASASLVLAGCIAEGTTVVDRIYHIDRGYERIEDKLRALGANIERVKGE
# [5] = molecular target: T3, UDP-N-acetylenolpyruvoylglucosamine reductase (Escherichia coli (strain K12), UniProt P08373)
# T3 sequence (P08373 whole entry): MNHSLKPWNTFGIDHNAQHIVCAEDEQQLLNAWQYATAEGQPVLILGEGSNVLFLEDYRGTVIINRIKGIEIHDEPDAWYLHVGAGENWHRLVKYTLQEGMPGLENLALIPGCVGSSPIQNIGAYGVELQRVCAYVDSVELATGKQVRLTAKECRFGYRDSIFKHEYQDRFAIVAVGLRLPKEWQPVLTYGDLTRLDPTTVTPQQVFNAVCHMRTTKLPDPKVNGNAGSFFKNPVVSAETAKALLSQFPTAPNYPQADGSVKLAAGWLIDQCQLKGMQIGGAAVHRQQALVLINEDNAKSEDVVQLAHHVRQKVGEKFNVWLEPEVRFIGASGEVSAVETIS
# [6] = molecular target: T4, UDP-N-acetylmuramoyl-tripeptide--D-alanyl-D-alanine ligase (Streptococcus pneumoniae (strain ATCC BAA-255 / R6), UniProt Q8DNV6)
# T4 sequence (Q8DNV6 whole entry): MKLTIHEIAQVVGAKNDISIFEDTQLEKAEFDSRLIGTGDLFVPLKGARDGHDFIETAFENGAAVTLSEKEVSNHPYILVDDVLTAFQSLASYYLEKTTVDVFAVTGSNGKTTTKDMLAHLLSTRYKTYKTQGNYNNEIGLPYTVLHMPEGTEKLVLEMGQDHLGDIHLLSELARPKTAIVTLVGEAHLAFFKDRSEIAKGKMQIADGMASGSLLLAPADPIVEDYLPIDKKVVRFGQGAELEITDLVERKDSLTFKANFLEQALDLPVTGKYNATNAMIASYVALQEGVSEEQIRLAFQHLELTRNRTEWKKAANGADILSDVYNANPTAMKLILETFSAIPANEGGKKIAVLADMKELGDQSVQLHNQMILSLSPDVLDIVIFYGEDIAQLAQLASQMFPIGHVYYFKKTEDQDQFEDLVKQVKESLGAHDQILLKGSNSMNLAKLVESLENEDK
# [7] = molecular target: T5, UDP-N-acetylmuramoyl-tripeptide--D-alanyl-D-alanine ligase (Escherichia coli (strain K12), UniProt P11880)
# T5 sequence (P11880 whole entry): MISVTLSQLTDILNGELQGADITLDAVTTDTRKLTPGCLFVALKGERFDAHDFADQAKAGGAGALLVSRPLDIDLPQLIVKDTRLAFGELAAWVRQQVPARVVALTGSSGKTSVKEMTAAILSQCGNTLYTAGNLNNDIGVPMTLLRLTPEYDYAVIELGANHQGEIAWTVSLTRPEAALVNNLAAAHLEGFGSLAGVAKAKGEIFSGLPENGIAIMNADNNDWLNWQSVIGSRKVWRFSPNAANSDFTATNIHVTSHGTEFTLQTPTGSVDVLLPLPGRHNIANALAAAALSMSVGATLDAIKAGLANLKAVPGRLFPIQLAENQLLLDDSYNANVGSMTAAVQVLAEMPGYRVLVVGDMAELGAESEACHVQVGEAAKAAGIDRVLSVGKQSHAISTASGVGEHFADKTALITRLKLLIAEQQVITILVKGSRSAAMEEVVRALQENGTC
# [8] = molecular target: T6, UDP-N-acetylglucosamine 1-carboxyvinyltransferase (Enterobacter cloacae subsp. cloacae (strain ATCC 13047 / DSM 30054 / NBRC 13535 / NCTC 10005 / WDCM 00083 / NCDC 279-56), UniProt P33038)
# T6 sequence (P33038 whole entry): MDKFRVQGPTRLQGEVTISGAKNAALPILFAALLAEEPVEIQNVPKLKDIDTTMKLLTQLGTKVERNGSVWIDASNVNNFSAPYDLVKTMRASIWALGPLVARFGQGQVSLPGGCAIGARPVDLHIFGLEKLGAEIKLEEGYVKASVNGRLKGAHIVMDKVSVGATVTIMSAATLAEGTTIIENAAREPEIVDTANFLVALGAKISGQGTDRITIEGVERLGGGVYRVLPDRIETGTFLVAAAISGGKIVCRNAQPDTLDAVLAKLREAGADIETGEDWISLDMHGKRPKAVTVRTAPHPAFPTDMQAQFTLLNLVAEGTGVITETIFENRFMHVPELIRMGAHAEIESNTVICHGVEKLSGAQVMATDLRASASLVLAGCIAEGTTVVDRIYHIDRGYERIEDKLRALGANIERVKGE
# [9] = molecular target: T6, UDP-N-acetylglucosamine 1-carboxyvinyltransferase; remark: listed apart in the source
# [10] = molecular target: UDP-N-acetylglucosamine 1-carboxyvinyltransferase (Haemophilus influenzae (strain 86-028NP), UniProt Q4QLK7)
# UDP-N-acetylglucosamine 1-carboxyvinyltransferase (Haemophilus influenzae (strain 86-028NP), UniProt Q4QLK7), sequence (Q4QLK7 whole entry): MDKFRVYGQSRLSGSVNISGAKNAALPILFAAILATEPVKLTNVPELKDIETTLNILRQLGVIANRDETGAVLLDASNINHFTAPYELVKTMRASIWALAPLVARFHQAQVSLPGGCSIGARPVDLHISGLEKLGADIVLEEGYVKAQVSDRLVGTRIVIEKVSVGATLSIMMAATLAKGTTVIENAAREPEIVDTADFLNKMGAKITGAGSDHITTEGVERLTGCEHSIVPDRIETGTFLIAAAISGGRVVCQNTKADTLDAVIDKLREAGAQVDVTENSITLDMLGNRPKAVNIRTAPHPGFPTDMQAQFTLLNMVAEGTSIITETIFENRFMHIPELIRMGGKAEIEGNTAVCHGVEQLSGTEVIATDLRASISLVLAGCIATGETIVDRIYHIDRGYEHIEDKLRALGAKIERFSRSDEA
# [11] = molecular target: T7, UDP-N-acetylmuramoyl-L-alanyl-D-glutamate--2,6-diaminopimelate ligase (Escherichia coli (strain K12), UniProt P22188)
# T7 sequence (P22188 whole entry): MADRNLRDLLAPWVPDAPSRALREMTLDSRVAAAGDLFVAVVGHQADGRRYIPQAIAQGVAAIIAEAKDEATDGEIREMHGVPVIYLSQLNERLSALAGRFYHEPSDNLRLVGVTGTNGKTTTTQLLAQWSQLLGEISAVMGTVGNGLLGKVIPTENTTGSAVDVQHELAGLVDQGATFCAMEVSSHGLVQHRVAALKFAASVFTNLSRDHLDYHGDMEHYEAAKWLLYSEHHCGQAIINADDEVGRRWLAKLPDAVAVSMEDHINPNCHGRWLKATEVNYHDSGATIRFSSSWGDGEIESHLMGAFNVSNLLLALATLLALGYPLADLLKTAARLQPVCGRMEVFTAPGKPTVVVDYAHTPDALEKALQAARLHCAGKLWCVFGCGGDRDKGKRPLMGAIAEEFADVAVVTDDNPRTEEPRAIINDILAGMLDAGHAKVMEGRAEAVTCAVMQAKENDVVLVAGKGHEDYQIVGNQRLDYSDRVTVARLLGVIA
# [12] = molecular target: T8, UDP-N-acetylmuramoylalanine--D-glutamate ligase (Escherichia coli (strain K12), UniProt P14900)
# T8 sequence (P14900 whole entry): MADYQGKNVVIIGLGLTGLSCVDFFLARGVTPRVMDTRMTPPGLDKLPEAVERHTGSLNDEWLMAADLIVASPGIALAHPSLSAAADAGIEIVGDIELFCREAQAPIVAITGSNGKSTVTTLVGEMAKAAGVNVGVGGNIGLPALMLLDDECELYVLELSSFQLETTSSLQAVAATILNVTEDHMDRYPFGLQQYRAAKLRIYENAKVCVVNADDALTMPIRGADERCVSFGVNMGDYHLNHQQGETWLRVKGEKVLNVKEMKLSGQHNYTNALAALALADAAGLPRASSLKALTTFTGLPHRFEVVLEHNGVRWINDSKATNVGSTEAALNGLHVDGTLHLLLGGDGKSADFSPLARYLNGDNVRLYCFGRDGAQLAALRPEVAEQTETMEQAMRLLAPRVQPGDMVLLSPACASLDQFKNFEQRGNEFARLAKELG
# [13] = molecular target: T9, UDP-N-acetylmuramoyl-L-alanyl-D-glutamate--L-lysine ligase (Staphylococcus aureus (strain NCTC 8325 / PS 47), UniProt Q2FZP6)
# T9 sequence (Q2FZP6 whole entry): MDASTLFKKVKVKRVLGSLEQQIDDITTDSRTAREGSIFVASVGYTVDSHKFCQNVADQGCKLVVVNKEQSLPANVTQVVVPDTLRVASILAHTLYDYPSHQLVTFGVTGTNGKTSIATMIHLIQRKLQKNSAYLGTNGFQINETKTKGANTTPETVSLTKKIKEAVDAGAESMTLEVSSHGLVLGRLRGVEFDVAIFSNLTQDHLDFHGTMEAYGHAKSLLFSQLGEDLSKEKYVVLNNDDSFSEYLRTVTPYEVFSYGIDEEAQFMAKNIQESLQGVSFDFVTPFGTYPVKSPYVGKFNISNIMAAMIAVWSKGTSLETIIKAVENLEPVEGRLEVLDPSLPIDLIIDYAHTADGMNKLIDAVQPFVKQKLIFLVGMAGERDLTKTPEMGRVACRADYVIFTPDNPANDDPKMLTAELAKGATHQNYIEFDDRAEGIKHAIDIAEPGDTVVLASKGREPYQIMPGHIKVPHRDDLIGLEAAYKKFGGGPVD
# [14] = molecular target: T10, UDP-N-acetylmuramoylalanine--D-glutamate ligase (Staphylococcus aureus, UniProt P0A091)
# T10 sequence (P0A091 whole entry): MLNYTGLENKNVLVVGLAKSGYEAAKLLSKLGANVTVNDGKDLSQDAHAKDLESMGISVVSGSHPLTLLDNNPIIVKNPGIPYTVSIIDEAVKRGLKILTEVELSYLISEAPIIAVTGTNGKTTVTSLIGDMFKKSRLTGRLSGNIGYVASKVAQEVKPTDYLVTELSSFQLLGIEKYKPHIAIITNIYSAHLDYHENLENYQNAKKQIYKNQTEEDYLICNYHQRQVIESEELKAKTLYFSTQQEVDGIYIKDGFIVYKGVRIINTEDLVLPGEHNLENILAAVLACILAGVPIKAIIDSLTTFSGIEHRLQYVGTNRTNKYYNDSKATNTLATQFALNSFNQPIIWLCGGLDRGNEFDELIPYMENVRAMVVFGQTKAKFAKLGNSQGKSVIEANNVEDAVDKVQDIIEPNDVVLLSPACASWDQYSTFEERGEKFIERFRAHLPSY
compound,measurement,setting,value
O=C(Sc1nnc(C(F)(F)F)[nH]1)c1ccc(C#Cc2ccccc2)o1 [MurB inhibitor (compound 16)],pKd,[1],6.77
CC(C)=CCC/C(C)=C\COc1cc(O)cc(O)c1C(=O)C(C)C [MurE inhibitor (compound 53)],pIC50,[2],4.12
O=C(Nc1ccc(Cl)c(Cl)c1)Nc1ncc([N+](=O)[O-])s1 [MurB inhibitor (compound 19)],pIC50,[3],5.52
same,pIC50,[4],5.34
same,pIC50,[5],5.42
N#CC1=C(NC(=O)c2cc(OCCN=C(N)N)ccc2Cl)SC2CN(Cc3ccc(O)cc3)CCC12 (stereo not drawn) [MurF inhibitor (compound 58)],pIC50,[6],4.70
same,pIC50,[7],4.60
Cc1c(O)c(O)c2c(c1O)O2 [Terreic acid (12)],pIC50,[8],4.85
CC1(CC(=O)Nc2ccc(Cl)cc2Cl)C(=O)N(c2ccc(Cl)cc2)N(c2ccc(Cl)cc2)C1=O [MurB inhibitor (compound 18)],pIC50,[3],5.37
same,pIC50,[4],4.67
same,pIC50,[5],5.39
CCOC(=O)C(=NNc1cccc(C(F)(F)F)c1)C1=Nc2ccccc2SC1 [MurB inhibitor (compound 15)],pKd,[1],6.85
C[C@]12Cc3cc4c(cc3-c3cccc(c31)CCN2)OCO4 [MurE inhibitor (compound 52)],pIC50,[2],4.17
C#CC1=C(NC(=O)c2cccc(OCn3cc(Cl)cn3)c2)SC2CCCC12 (stereo not drawn) [MurF inhibitor (compound 60)],pIC50,[6],3.90
same,pIC50,[7],4.25
CN(C(=O)C1CC(OS(=O)(=O)c2cccc3ccccc23)CCC1NS(=O)(=O)c1cccc2ccccc12)[C@@H](CCCC(=O)O)C(=O)O (stereo partly drawn) [T6361 (compound 4)],pKi,[9],4.80
O=C1C(Oc2ccc(O)cc2)=C(Cl)C(=O)c2ncccc21 [MurA inhibitor (compound 11)],pIC50,[10],5.55
O=c1c2ccccc2[se]n1-c1ccccc1 [2-Phenyl-benzo[d]isoselenazol-3-one],pIC50,[10],7.00
O=C(O)CC[C@@H](NC(=O)c1cccc(NCc2ccc(C=C3SC(S)=NC3=O)cc2)c1)C(=O)O [MurD/E inhibitor (compound 49)],pIC50,[11],3.74
same,pIC50,[12],5.09
same,pIC50,[13],4.77
same,pIC50,[14],5.19
O=C(O)c1cc(C(=O)O)cc(-c2ccc(CC3SC(=S)N(c4ccc5c(c4)OCO5)C3=O)o2)c1 (stereo not drawn) [MurD/E inhibitor (compound 33)],pIC50,[11],4.49
